In brackets after ≈: the same amount, converted by molar mass.
Test system: E. cloacae β19
Assay: In vitro antibacterial activity test (broth microdilution)
Assay type: cell-based
Conditions: Enterobacter cloacae
Procedure, shortened: (§1)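 Compounds were dissolved in DMSO at 10,240 ug/mL stock, diluted two-fold in DMSO and then twenty-fold in sterile water. Final test concentrations spanned 0.0626 to 128 ug/mL with 2.5% (V/V) DMSO, and MIC90 was read by CLSI broth microdilution.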

| SMILES | MIC90 [µg/mL] |
| --- | --- |
| CC(C)(O/N=C(\C(=O)N[C@@H]1C(=O)N2C(C(=O)[O-])=C(/C=C/C[n+]3cnc(N)c(NCCN)c3)CSC12)c1nsc(N)n1)C(=O)O (some centres unmarked) [Compound 55] | 8 (≈ 12.4 µM) |
| CC(C)(O/N=C(\C(=O)N[C@@H]1C(=O)N2C(C(=O)[O-])=C(/C=C/C[n+]3cnc(N)c(NC(=O)CCCN)c3N)CSC12)c1nc(N)sc1Cl)C(=O)O (some centres unmarked) [Compound 67] | 32 (≈ 43.3 µM) |

Test system: A. calcoaceticus ATCC15473
Assay: as above
Assay type: cell-based
Conditions: Acinetobacter calcoaceticus, ATCC15473, A. calcoaceticus ATCC15473
Procedure, shortened: as §1

| SMILES | MIC90 [µg/mL] |
| --- | --- |
| CC(C)(O/N=C(\C(=O)N[C@@H]1C(=O)N2C(C(=O)[O-])=C(/C=C/C[n+]3cnc(N)c(NCCN)c3)CSC12)c1nsc(N)n1)C(=O)O (some centres unmarked) [Compound 55] | 0.125 (≈ 0.193 µM) |
| CC(C)(O/N=C(\C(=O)N[C@@H]1C(=O)N2C(C(=O)[O-])=C(/C=C/C[n+]3cnc(N)c(NC(=O)CCCN)c3N)CSC12)c1nc(N)sc1Cl)C(=O)O (some centres unmarked) [Compound 67] | 4 (≈ 5.42 µM) |

Test system: A. baumannii 49
Assay: as above
Assay type: cell-based
Conditions: Acinetobacter baumannii, 49, A. baumannii 49
Procedure, shortened: as §1

| SMILES | MIC90 [µg/mL] |
| --- | --- |
| CC(C)(O/N=C(\C(=O)N[C@@H]1C(=O)N2C(C(=O)[O-])=C(/C=C/C[n+]3cnc(N)c(NCCN)c3)CSC12)c1nsc(N)n1)C(=O)O (some centres unmarked) [Compound 55] | 64 (≈ 98.8 µM) |
| CC(C)(O/N=C(\C(=O)N[C@@H]1C(=O)N2C(C(=O)[O-])=C(/C=C/C[n+]3cnc(N)c(NC(=O)CCCN)c3N)CSC12)c1nc(N)sc1Cl)C(=O)O (some centres unmarked) [Compound 67] | 64 (≈ 86.7 µM) |

Test system: K. pneumoniae β10
Assay: as above
Assay type: cell-based
Conditions: Klebsiella pneumoniae
Procedure, shortened: as §1

| SMILES | MIC90 [µg/mL] |
| --- | --- |
| CC(C)(O/N=C(\C(=O)N[C@@H]1C(=O)N2C(C(=O)[O-])=C(/C=C/C[n+]3cnc(N)c(NCCN)c3)CSC12)c1nsc(N)n1)C(=O)O (some centres unmarked) [Compound 55] | 0.125 (≈ 0.193 µM) |
| CC(C)(O/N=C(\C(=O)N[C@@H]1C(=O)N2C(C(=O)[O-])=C(/C=C/C[n+]3cnc(N)c(NC(=O)CCCN)c3N)CSC12)c1nc(N)sc1Cl)C(=O)O (some centres unmarked) [Compound 67] | 4 (≈ 5.42 µM) |

Test system: A. baumannii 46
Assay: as above
Assay type: cell-based
Conditions: Acinetobacter baumannii, 46, A. baumannii 46
Procedure, shortened: as §1

| SMILES | MIC90 [µg/mL] |
| --- | --- |
| CC(C)(O/N=C(\C(=O)N[C@@H]1C(=O)N2C(C(=O)[O-])=C(/C=C/C[n+]3cnc(N)c(NCCN)c3)CSC12)c1nsc(N)n1)C(=O)O (some centres unmarked) [Compound 55] | 0.5 (≈ 0.772 µM) |
| CC(C)(O/N=C(\C(=O)N[C@@H]1C(=O)N2C(C(=O)[O-])=C(/C=C/C[n+]3cnc(N)c(NC(=O)CCCN)c3N)CSC12)c1nc(N)sc1Cl)C(=O)O (some centres unmarked) [Compound 67] | 64 (≈ 86.7 µM) |

Test system: M. catarrhalis 2524
Assay: as above
Assay type: cell-based
Conditions: Moraxella catarrhalis, 2524
Procedure, shortened: as §1

| SMILES | MIC90 [µg/mL] |
| --- | --- |
| CC(C)(O/N=C(\C(=O)N[C@@H]1C(=O)N2C(C(=O)[O-])=C(/C=C/C[n+]3cnc(N)c(NCCN)c3)CSC12)c1nsc(N)n1)C(=O)O (some centres unmarked) [Compound 55] | < 0.0625 |
| CC(C)(O/N=C(\C(=O)N[C@@H]1C(=O)N2C(C(=O)[O-])=C(/C=C/C[n+]3cnc(N)c(NC(=O)CCCN)c3N)CSC12)c1nc(N)sc1Cl)C(=O)O (some centres unmarked) [Compound 67] | < 0.0625 |

Test system: K. pneumoniae β14
Assay: as above
Assay type: cell-based
Conditions: Klebsiella pneumoniae
Procedure, shortened: as §1

| SMILES | MIC90 [µg/mL] |
| --- | --- |
| CC(C)(O/N=C(\C(=O)N[C@@H]1C(=O)N2C(C(=O)[O-])=C(/C=C/C[n+]3cnc(N)c(NCCN)c3)CSC12)c1nsc(N)n1)C(=O)O (some centres unmarked) [Compound 55] | 0.5 (≈ 0.772 µM) |
| CC(C)(O/N=C(\C(=O)N[C@@H]1C(=O)N2C(C(=O)[O-])=C(/C=C/C[n+]3cnc(N)c(NC(=O)CCCN)c3N)CSC12)c1nc(N)sc1Cl)C(=O)O (some centres unmarked) [Compound 67] | 4 (≈ 5.42 µM) |

Test system: P. aeruginosa 1912E
Assay: as above
Assay type: cell-based
Conditions: Pseudomonas aeruginosa, 1912E
Procedure, shortened: as §1

| SMILES | MIC90 [µg/mL] |
| --- | --- |
| CC(C)(O/N=C(\C(=O)N[C@@H]1C(=O)N2C(C(=O)[O-])=C(/C=C/C[n+]3cnc(N)c(NCCN)c3)CSC12)c1nsc(N)n1)C(=O)O (some centres unmarked) [Compound 55] | 1 (≈ 1.54 µM) |
| CC(C)(O/N=C(\C(=O)N[C@@H]1C(=O)N2C(C(=O)[O-])=C(/C=C/C[n+]3cnc(N)c(NC(=O)CCCN)c3N)CSC12)c1nc(N)sc1Cl)C(=O)O (some centres unmarked) [Compound 67] | 4 (≈ 5.42 µM) |

Test system: K. pneumoniae β9
Assay: as above
Assay type: cell-based
Conditions: Klebsiella pneumoniae
Procedure, shortened: as §1

| SMILES | MIC90 [µg/mL] |
| --- | --- |
| CC(C)(O/N=C(\C(=O)N[C@@H]1C(=O)N2C(C(=O)[O-])=C(/C=C/C[n+]3cnc(N)c(NCCN)c3)CSC12)c1nsc(N)n1)C(=O)O (some centres unmarked) [Compound 55] | 2 (≈ 3.09 µM) |
| CC(C)(O/N=C(\C(=O)N[C@@H]1C(=O)N2C(C(=O)[O-])=C(/C=C/C[n+]3cnc(N)c(NC(=O)CCCN)c3N)CSC12)c1nc(N)sc1Cl)C(=O)O (some centres unmarked) [Compound 67] | 8 (≈ 10.8 µM) |

Test system: K. pneumoniae β11
Assay: as above
Assay type: cell-based
Conditions: Klebsiella pneumoniae
Procedure, shortened: as §1

| SMILES | MIC90 [µg/mL] |
| --- | --- |
| CC(C)(O/N=C(\C(=O)N[C@@H]1C(=O)N2C(C(=O)[O-])=C(/C=C/C[n+]3cnc(N)c(NCCN)c3)CSC12)c1nsc(N)n1)C(=O)O (some centres unmarked) [Compound 55] | 128 (≈ 198 µM) |
| CC(C)(O/N=C(\C(=O)N[C@@H]1C(=O)N2C(C(=O)[O-])=C(/C=C/C[n+]3cnc(N)c(NC(=O)CCCN)c3N)CSC12)c1nc(N)sc1Cl)C(=O)O (some centres unmarked) [Compound 67] | 8 (≈ 10.8 µM) |

Test system: K. pneumoniae β13
Assay: as above
Assay type: cell-based
Conditions: Klebsiella pneumoniae
Procedure, shortened: as §1

| SMILES | MIC90 [µg/mL] |
| --- | --- |
| CC(C)(O/N=C(\C(=O)N[C@@H]1C(=O)N2C(C(=O)[O-])=C(/C=C/C[n+]3cnc(N)c(NCCN)c3)CSC12)c1nsc(N)n1)C(=O)O (some centres unmarked) [Compound 55] | 0.25 (≈ 0.386 µM) |
| CC(C)(O/N=C(\C(=O)N[C@@H]1C(=O)N2C(C(=O)[O-])=C(/C=C/C[n+]3cnc(N)c(NC(=O)CCCN)c3N)CSC12)c1nc(N)sc1Cl)C(=O)O (some centres unmarked) [Compound 67] | 2 (≈ 2.71 µM) |

Test system: E. coli β4
Assay: as above
Assay type: cell-based
Conditions: Escherichia coli
Procedure, shortened: as §1

| SMILES | MIC90 [µg/mL] |
| --- | --- |
| CC(C)(O/N=C(\C(=O)N[C@@H]1C(=O)N2C(C(=O)[O-])=C(/C=C/C[n+]3cnc(N)c(NCCN)c3)CSC12)c1nsc(N)n1)C(=O)O (some centres unmarked) [Compound 55] | < 0.0625 |
| CC(C)(O/N=C(\C(=O)N[C@@H]1C(=O)N2C(C(=O)[O-])=C(/C=C/C[n+]3cnc(N)c(NC(=O)CCCN)c3N)CSC12)c1nc(N)sc1Cl)C(=O)O (some centres unmarked) [Compound 67] | 2 (≈ 2.71 µM) |

Test system: P. aeruginosa 6065Y
Assay: as above
Assay type: cell-based
Conditions: Pseudomonas aeruginosa, 6065Y
Procedure, shortened: as §1

| SMILES | MIC90 [µg/mL] |
| --- | --- |
| CC(C)(O/N=C(\C(=O)N[C@@H]1C(=O)N2C(C(=O)[O-])=C(/C=C/C[n+]3cnc(N)c(NCCN)c3)CSC12)c1nsc(N)n1)C(=O)O (some centres unmarked) [Compound 55] | 8 (≈ 12.4 µM) |
| CC(C)(O/N=C(\C(=O)N[C@@H]1C(=O)N2C(C(=O)[O-])=C(/C=C/C[n+]3cnc(N)c(NC(=O)CCCN)c3N)CSC12)c1nc(N)sc1Cl)C(=O)O (some centres unmarked) [Compound 67] | 32 (≈ 43.3 µM) |

Test system: P. aeruginosa 37
Assay: as above
Assay type: cell-based
Conditions: Pseudomonas aeruginosa, 37, P. aeruginosa 37
Procedure, shortened: as §1

| SMILES | MIC90 [µg/mL] |
| --- | --- |
| CC(C)(O/N=C(\C(=O)N[C@@H]1C(=O)N2C(C(=O)[O-])=C(/C=C/C[n+]3cnc(N)c(NCCN)c3)CSC12)c1nsc(N)n1)C(=O)O (some centres unmarked) [Compound 55] | 4 (≈ 6.18 µM) |
| CC(C)(O/N=C(\C(=O)N[C@@H]1C(=O)N2C(C(=O)[O-])=C(/C=C/C[n+]3cnc(N)c(NC(=O)CCCN)c3N)CSC12)c1nc(N)sc1Cl)C(=O)O (some centres unmarked) [Compound 67] | 16 (≈ 21.7 µM) |

Test system: P. aeruginosa 43
Assay: as above
Assay type: cell-based
Conditions: Pseudomonas aeruginosa, 43
Procedure, shortened: as §1

| SMILES | MIC90 [µg/mL] |
| --- | --- |
| CC(C)(O/N=C(\C(=O)N[C@@H]1C(=O)N2C(C(=O)[O-])=C(/C=C/C[n+]3cnc(N)c(NCCN)c3)CSC12)c1nsc(N)n1)C(=O)O (some centres unmarked) [Compound 55] | > 128 |
| CC(C)(O/N=C(\C(=O)N[C@@H]1C(=O)N2C(C(=O)[O-])=C(/C=C/C[n+]3cnc(N)c(NC(=O)CCCN)c3N)CSC12)c1nc(N)sc1Cl)C(=O)O (some centres unmarked) [Compound 67] | > 128 |

Test system: A. baumannii 52
Assay: as above
Assay type: cell-based
Conditions: Acinetobacter baumannii, 52
Procedure, shortened: as §1

| SMILES | MIC90 [µg/mL] |
| --- | --- |
| CC(C)(O/N=C(\C(=O)N[C@@H]1C(=O)N2C(C(=O)[O-])=C(/C=C/C[n+]3cnc(N)c(NCCN)c3)CSC12)c1nsc(N)n1)C(=O)O (some centres unmarked) [Compound 55] | 64 (≈ 98.8 µM) |
| CC(C)(O/N=C(\C(=O)N[C@@H]1C(=O)N2C(C(=O)[O-])=C(/C=C/C[n+]3cnc(N)c(NC(=O)CCCN)c3N)CSC12)c1nc(N)sc1Cl)C(=O)O (some centres unmarked) [Compound 67] | 64 (≈ 86.7 µM) |

Test system: E. coli AG100
Assay: as above
Assay type: cell-based
Conditions: Escherichia coli, AG100
Procedure, shortened: as §1

| SMILES | MIC90 [µg/mL] |
| --- | --- |
| CC(C)(O/N=C(\C(=O)N[C@@H]1C(=O)N2C(C(=O)[O-])=C(/C=C/C[n+]3cnc(N)c(NCCN)c3)CSC12)c1nsc(N)n1)C(=O)O (some centres unmarked) [Compound 55] | < 0.0625 |
| CC(C)(O/N=C(\C(=O)N[C@@H]1C(=O)N2C(C(=O)[O-])=C(/C=C/C[n+]3cnc(N)c(NC(=O)CCCN)c3N)CSC12)c1nc(N)sc1Cl)C(=O)O (some centres unmarked) [Compound 67] | 0.5 (≈ 0.677 µM) |

Test system: K. pneumoniae 2011E
Assay: as above
Assay type: cell-based
Conditions: Klebsiella pneumoniae, 2011E
Procedure, shortened: as §1

| SMILES | MIC90 [µg/mL] |
| --- | --- |
| CC(C)(O/N=C(\C(=O)N[C@@H]1C(=O)N2C(C(=O)[O-])=C(/C=C/C[n+]3cnc(N)c(NCCN)c3)CSC12)c1nsc(N)n1)C(=O)O (some centres unmarked) [Compound 55] | < 0.0625 |
| CC(C)(O/N=C(\C(=O)N[C@@H]1C(=O)N2C(C(=O)[O-])=C(/C=C/C[n+]3cnc(N)c(NC(=O)CCCN)c3N)CSC12)c1nc(N)sc1Cl)C(=O)O (some centres unmarked) [Compound 67] | 2 (≈ 2.71 µM) |

Test system: P. aeruginosa 40
Assay: as above
Assay type: cell-based
Conditions: Pseudomonas aeruginosa, 40
Procedure, shortened: as §1

| SMILES | MIC90 [µg/mL] |
| --- | --- |
| CC(C)(O/N=C(\C(=O)N[C@@H]1C(=O)N2C(C(=O)[O-])=C(/C=C/C[n+]3cnc(N)c(NCCN)c3)CSC12)c1nsc(N)n1)C(=O)O (some centres unmarked) [Compound 55] | 1 (≈ 1.54 µM) |
| CC(C)(O/N=C(\C(=O)N[C@@H]1C(=O)N2C(C(=O)[O-])=C(/C=C/C[n+]3cnc(N)c(NC(=O)CCCN)c3N)CSC12)c1nc(N)sc1Cl)C(=O)O (some centres unmarked) [Compound 67] | 16 (≈ 21.7 µM) |

Reference: patent publication US9630977B2, “Cephalosporin derivatives and pharmaceutical compositions thereof” (Legochem Biosciences, Inc., priority 2011, dated 2017)
